Series [1] deals with influenza virus (A/Weiss/43(H1N1)). Put plainly: Cytopathic effect assay (CPE assay), antiviral activity. Type of series: cell-based. Conditions: MDCK cells, CPE inhibition, CCK-8; read-out: EC50 against influenza virus (A/Weiss/43(H1N1)) in vitro.
Series [2] deals with MDCK cells. Put plainly: Cytotoxicity test group of the CPE assay (no virus added, CCK-8 kit). Format: cell-based. On the procedure:
Experimental Procedures: MDCK cells were seeded in a 384-well plate with 2000 cells per wells, which were incubated overnight at 37° C., 5% CO2; The culture medium was changed to the fresh culture solution containing different concentrations of the compound and virus H1N1 A/Weiss/43 at a multiplicity of infection to yield 80-95% CPE on the second day. The test compound was serially diluted from the highest concentration of 100 nM in 1:3 dilutions to give 8 concentrations: 100 nM, 33.33 nM, 11.11 nM, 3.70 nM, 1.23 nM, 0.41 nM, 0.14 nM, 0.05 nM. At the same time, a non-medicated virus control group and a non-medicated cell control group free of virus were set up. No virus was added in the cytotoxicity test group but medium was added for replacement. Each group was set in duplicate, and incubated at 37° C. in 5% CO2. The cell activity was measured according to the CCK-8 kit (source: Shanghai Liji Biotechnology Co., Ltd. #D3100L4057) and the data would be used to calculate the antiviral and cytotoxicity of the compound. Data were analyzed by GraphPad Prism, CPE inhibition rate was calculated, and the EC50 was obtained according to the fitted curve. CPE inhibition rate=(absorbance of dosing hole-absorbance of virus control well)/(absorbance of cell control well-virus control well)×100%
(Formazan colour is commonly taken as a measure of viable cells.)

A word on the CC50: it is the concentration that lowers cell viability or growth by half. For “(12aR)-12-((8R)-4,5-difluoro-2-phenyl-8H-dibenzo[3,4:6,7]cyclohept[1,2-b]thiophen-8-yl)-7-hydroxy-3,4,12,12a-tetrahydro-1H-[1,4]oxazino[3,4-c]pyrido[2,1-f] [1,2,4] triazine-6,8-dione and (12aS)-12-((8S)-4,5-difluoro-2-phenyl-8H-dibenzo[3,4:6,7]cyclohept[1,2-b]thiophen-8-yl)-7-hydroxy-3,4,12,12a-tetrahydro-1H-[1,4] oxazino [3,4-c] pyrido [2,1-f][1,2,4] triazine-6,8-dione [Example 12]”, the EC50 in series [1] stood at 0.0493 µM. In series [2], this substance returned a CC50 of 112 µM.

The values above are taken from patent US11104689B2, “Influenza virus replication inhibitor and use thereof” (SUNSHINE LAKE PHARMA CO., LTD., priority 2017, dated 2021).
